From patent US20100317688A1, “2-HETEROAROYLIMIDAZOL[1,2-a]PYRIDINE DERIVATIVES, PREPARATION AND THERAPEUTIC USE THEREOF” (SANOFI-AVENTIS, priority 2008, published 2010)

Target: T1, murine Nurr1 receptor (Mus musculus, UniProt Q06219)
T1 construct: a cell line (N2A) endogenously expressing the murine Nurr1 receptor; host or cells: Neuro-2A (N2A) mouse neuroblastoma cells stably transfected with 8NBRE-luciferase
Test: In vitro activity on N2A cells (8NBRE-luciferase reporter)
Assay type: cell-based
Conditions: N2A cell line endogenously expressing Nurr1, stably transfected with NBRE-luciferase; 24 hours incubation
Method: Evaluation of the In Vitro Activity on N2A Cells
The activity of the compounds according to the invention was evaluated on a cell line (N2A) endogenously expressing the murine Nurr1 receptor and stably transfected with the NOT binding response element (NBRE) coupled to the luciferase reporter gene. The EC50 values are between 0.01 and 1000 nM. The tests were performed according to the procedure described hereinbelow.
The cell line Neuro-2A is obtained from a standard commercial source (ATCC). The clone Neuro-2A was obtained from a spontaneous tumour originating from a strain of albino mice A by R. J Klebe et al. This line Neuro-2A is then stably transfected with 8NBRE-luciferase. The N2A-8NBRE cells are cultured to the point of confluence in 75 cm^2 culture flasks containing DMEM supplemented with 10% foetal calf serum, 4.5 g/L of glucose and 0.4 mg/ml of geneticin. After culturing for one week, the cells are recovered with 0.25% trypsin for 30 seconds and then resuspended in DMEM without phenol red, containing 4.5 g/L of glucose and 10% Hyclone defatted serum, and placed in white, transparent-based 96-well plates. The cells are deposited at a rate of 60 000 per well in 75 μL for 24 hours before adding the products. […] The plates are then measured in a microplate luminescence counter, after having been sealed with an adhesive film. […]

T1 sequence (Q06219 whole entry): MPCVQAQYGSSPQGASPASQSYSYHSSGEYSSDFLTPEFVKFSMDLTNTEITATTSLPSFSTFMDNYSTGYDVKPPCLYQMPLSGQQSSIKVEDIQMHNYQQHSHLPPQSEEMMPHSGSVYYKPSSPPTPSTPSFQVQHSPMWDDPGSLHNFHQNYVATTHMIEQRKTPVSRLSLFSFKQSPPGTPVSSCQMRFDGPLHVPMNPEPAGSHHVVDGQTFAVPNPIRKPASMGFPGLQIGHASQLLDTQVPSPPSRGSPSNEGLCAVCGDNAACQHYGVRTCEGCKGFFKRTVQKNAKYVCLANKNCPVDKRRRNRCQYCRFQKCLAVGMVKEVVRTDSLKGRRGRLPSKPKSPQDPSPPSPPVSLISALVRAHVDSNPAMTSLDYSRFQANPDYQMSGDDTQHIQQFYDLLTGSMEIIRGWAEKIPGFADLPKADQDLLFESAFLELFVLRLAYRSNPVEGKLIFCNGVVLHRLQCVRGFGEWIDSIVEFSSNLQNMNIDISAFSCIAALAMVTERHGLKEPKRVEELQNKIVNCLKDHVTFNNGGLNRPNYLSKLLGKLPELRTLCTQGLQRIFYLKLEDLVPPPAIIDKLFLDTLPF

EC50: 4.7 nM
SMILES: O=C(c1cn2cc(Cl)ccc2n1)c1cccs1 [Example 4, (6-Chloroimidazo[1,2-a]pyridin-2-yl)(thien-2-yl)methanone]
